Data: patent EP2345639A1, “Cyclic hydroxylamine derivatives, their preparation and use as antioxidants” (ABIOGEN PHARMA S.p.A., priority 2009, dated 2011)

What was measured:
[1] = Acid dissociation constants (pKa) by titration; format: physicochemical; settings: pH at semi-neutralization point of titration with 0.1 N NaOH or HCl
Description: The following equipment was used during the implementation of all the examples: • for melting point determination a Buchi B-540 instrument was used; • the pKa is the pH at the semi-neutralization point of titration using a Mettler Toledo DL-50 instrument with a 0.1 N NaOH or HC! solution; • the ^1H-NMR spectra were recorded at 300 MHz and the ^13C-NMR spectra were recorded at 75 MHz using a Varian Unity 300 instrument; • spectrophotometric measurements were carried out using a Lambda Perkin Elmer 15 UV/Vis spectrophotometer for the DPPH assay and a Wallac Victor 1420 multilabel counter spectrophotometer.

[2] = TEAC method (Trolox Equivalent Antioxidant Capacity Assay); format: biochemical; settings: ratio of gradient to gradient of Trolox; 650 nm, 37 °C, about 90 minutes
From the text: This assay is used to measure the total antioxidant activity of pure substances, biological fluids and plant compounds and is based on the reaction of antioxidants with the cation radical ABTS·^+ (2,2'-azinobis(3-ethylbenzothiazolin-6-sulphonate)). This cation radical is metastable and has to be generated just before the experiment by reacting ABTS with hydrogen peroxide in the presence of HRP. This radical can be reduced, with consequent loss of absorbance, by an antioxidant whose scavenging capacity can be measured spectrophotometrically at 650 nm. The test is carried out at 37 °C and the results are obtained from a comparison with Trolox (a synthetic antioxidant and hydrophilic analogue of vitamin E).
The ABTS solution S1 was prepared as follows: • 20 mg of ABTS were added to 50 mM of citric acid buffer (40 ml) at pH=4.5 and to the resulting solution there was added an aqueous solution of HRP (4.4 mg, 400 µl) and an aqueous solution of H2O2 (10 µl of a 30% solution diluted with 16.3 ml of water).
For each of the compounds (1)-(11), as synthesized above, there was prepared a 600 µM solution in water, methanol or DMSO according to its solubility, as well as a Trolox solution as reference.
Each solution was diluted to produce 6 solutions each at a concentration between 25 µM and 300 µM. From each of the diluted and divided solutions, there were withdrawn 20 µl to which 200 µl of solution S1 were then added.
The decrease in absorbance of each solution thus obtained was monitored at 650 nm until a stable value was reached (about 90 minutes).
For each set of 6 solutions and for the reference trolox solution, the absorption was given in graph form as a function of the amount of compound (nmol) in the solution. The gradient of the straight line obtained by linear interpolation was determined according to the least squares method. The TEAC value of each compound of the invention is given in the table below and is expressed as the ratio between the gradient of the resulting straight line and the gradient of the reference (trolox) straight line.

[3] = system: healthy animals; assay: Effect of the compounds on healthy animals (same in vivo assay, cerebral oxidative parameters); parameters: species or system mice
Description: 10 mice were used for each treatment group. For each compound 50 mg/kg were administered intraperitoneally (IP) for three consecutive days (day 0, 1 and 2); half the animals (5) also received IP 16.7 mg/kg of doxorubicin immediately after the first treatment (day 0). On the day after the last administration (day 3) the animals were killed by neck dislocation and the brains were removed, weighed and frozen in liquid nitrogen.
For the analyses of oxidative stress, 100 mg/ml of brain homogenate was prepared in HEB^(*) buffer (pH 7.4 EDTA/HEPES^(**)) containing a mixture of enzyme inhibitors (Leupeptin, Pepstatin, Aprotinin, BHA).
The evaluation parameters were: • BrW/BWi: ratio between final brain weight and initial body weight (day 0); • Prot. Hmg: total proteins in the homogenate (BCA method, i.e. bicinchoninic acid); • Prot. Ox: oxidized proteins in the Hmg by means of a colorimetric method using dinitrophenylhydrazone (DNPH); • GSH: reduced glutathione in the supernatant (sn) of the Hmg, obtained after precipitation with metaphosphoric acid (MPA), by means of a colorimetric method using dithiodinitrobenzene (DTNB); • CAT: catalase in the Hmg by a colorimetric method using potassium dichromate; • SOD: superoxide dismutase by a colorimetric method using SOD Reagent (xanthine, EDTA, nitroblue tetrazole, Na2CO3, BSA, i.e. bovine serum albumin); • GST: glutathione S-transferase in the supernatant by a colorimetric method using chlorodinitrobenzene (CDNB) and GSH; and • GPx: glutathione peroxidase in the supernatant after addition of GSH and t-BuOOH, heating and precipitation with MPA; followed by GSH method with DTNB. The assay was performed on the compounds (1)-(5) and (7)-(11) and on edaravone (E), as comparative compound.
The mean % effect, on all the parameters simultaneously, of the triple treatment in healthy animal, as mean percentage change relative to the vehicle. This value is useful as an approximate safety index of the oxidative state of the brain, i.e. the capacity of the compounds of the invention not to alter cerebral homeostasis in healthy animals.

[4] = healthy mice, 50 mg/kg IP for three consecutive days, mean over all parameters, D = doxorubicin alone, 50 mg/kg
[5] = healthy mice, 50 mg/kg IP x3 days, percentage change relative to the vehicle

Row | SMILES | Brain/BWi [3, 5] [%] | CAT/pr [3, 5] [%] | GPX/pr [3, 5] [%] | GSH/pr [3, 5] [%] | GST/pr [3, 5] [%] | Prot. Hmg [3, 5] [%] | Prot. Ox/pr [3, 5] [%] | SOD/pr [3, 5] [%] | pKa1 [1] | pKa2 [1] | TEAC [2] | Average % variation with respect to the vehicle [3, 4] | Brain/BWi ([3]; mouse, in vivo, ip, 50 mg/kg) [%] | CAT/pr ([3]; mouse, in vivo, ip, 50 mg/kg) [%] | GPX/pr ([3]; mouse, in vivo, ip, 50 mg/kg) [%] | GSH/pr ([3]; mouse, in vivo, ip, 50 mg/kg) [%] | GST/pr ([3]; mouse, in vivo, ip, 50 mg/kg) [%] | Prot. Ox/pr ([3]; mouse, in vivo, ip, 50 mg/kg) [%] | SOD/pr ([3]; mouse, in vivo, ip, 50 mg/kg) [%] | other results
1 | O=c1oc2ccccc2c(O)c1C1COCCN1O (centres unmarked) [(10), 4-hydroxy-3-(4-hydroxymorpholin-3-yl)-2H-chromen-2-one] |  |  |  |  |  | 3.1 |  |  | 2.70 | 6.14 | 1.4 | did not significantly alter the parameters | -5.9 | -8.2 | -0.8 | -3.2 | -1.2 | 5.4 | 2.1 | Average % variation with respect to the vehicle ([3]; healthy mice, 50 mg/kg IP for three consecutive days, mean over all parameters, D = doxorubicin alone, listed as V+(10), 50 mg/kg): -4.4%
2 | O=C1CC(c2ccccc2)CC(=O)C1C1COCCN1O (centres unmarked) [(5), 2-(4-hydroxymorpholin-3-yl)-5-phenylcyclohexane-1,3-dione] |  |  |  |  |  | 5.0 |  |  | 2.71 | 6.44 | 1.2 | did not significantly alter the parameters | 0.1 | -8.1 | -4.1 | -6.7 | -5.8 | 1.8 | -3.7 | Average % variation with respect to the vehicle ([3]; healthy mice, 50 mg/kg IP for three consecutive days, mean over all parameters, D = doxorubicin alone, listed as V+(5), 50 mg/kg): -3.2%
3 | CC1(C)CC(=O)C(C2COCCN2O)C(=O)C1 (centres unmarked) [(4), 2-(4-hydroxymorpholin-3-yl)-5,5-dimethylcyclohexane-1,3-dione] |  |  |  |  |  | 1.9 |  |  | 2.28 | 6.15 | 1.2 | did not significantly alter the parameters | -0.1 | -0.7 | -2.0 | -4.0 | -5.2 | -3.0 | -5.8 | Average % variation with respect to the vehicle ([3]; healthy mice, 50 mg/kg IP for three consecutive days, mean over all parameters, D = doxorubicin alone, listed as V+(4), 50 mg/kg): -2.1%
4 | O=C1c2ccccc2C(=O)C1C1COCCN1O (centres unmarked) [(8), 2-(4-hydroxymorpholin-3-yl)-2H-indene-1,3-dione] |  |  |  |  |  |  |  |  | 2.17 | 5.98 | 1.5 |  |  |  |  |  |  |  |  | Average % variation with respect to the vehicle ([3]; mouse, in vivo, ip, 50 mg/kg): -8.0%

More lines, main results first:

Row | Brain/BWi [3, 5] [%] | CAT/pr [3, 5] [%] | GPX/pr [3, 5] [%] | GSH/pr [3, 5] [%] | GST/pr [3, 5] [%] | Prot. Hmg [3, 5] [%] | Prot. Ox/pr [3, 5] [%] | SOD/pr [3, 5] [%] | SMILES | pKa1 [1] | pKa2 [1] | TEAC [2] | Average % variation with respect to the vehicle [3, 4] | Brain/BWi ([3]; mouse, in vivo, ip, 50 mg/kg) [%] | CAT/pr ([3]; mouse, in vivo, ip, 50 mg/kg) [%] | GPX/pr ([3]; mouse, in vivo, ip, 50 mg/kg) [%] | GSH/pr ([3]; mouse, in vivo, ip, 50 mg/kg) [%] | GST/pr ([3]; mouse, in vivo, ip, 50 mg/kg) [%] | Prot. Ox/pr ([3]; mouse, in vivo, ip, 50 mg/kg) [%] | SOD/pr ([3]; mouse, in vivo, ip, 50 mg/kg) [%] | other results
5 | -2.7 | -1.6 | -3.3 | -1.2 | -0.9 | 1.7 | 1.5 | -33. | CC1=NN(c2ccccc2)C(=O)C1C1COCCN1O (centres unmarked) [(11), 4-(4-hydroxymorpholin-3-yl)-3-methyl-1-phenyl-1H-pyrazol-5(4H)-one] | 3.31 | 6.92 | 2.0 | did not significantly alter the parameters |  |  |  |  |  |  |  | Average % variation with respect to the vehicle ([3]; healthy mice, 50 mg/kg IP for three consecutive days, mean over all parameters, D = doxorubicin alone, listed as V+(11), 50 mg/kg): -2.0%
6 | -9.8 | -11.6 | -0.8 | -9.5 | -0.5 | 3.6 | -7.2 | 0.5 | O=C1CCC(=O)C1C1COCCN1O (centres unmarked) [(7), 2-(4-hydroxymorpholin-3-yl)-cyclopentane-1,3-dione] | 2.32 | 4.98 | 1.5 | did not significantly alter the parameters |  |  |  |  |  |  |  | Average % variation with respect to the vehicle ([3]; healthy mice, 50 mg/kg IP for three consecutive days, mean over all parameters, D = doxorubicin alone, listed as V+(7), 50 mg/kg): -3.5%
7 | 2.7 | -5.0 | -6.7 | -5.5 | -3.1 | 3.7 | -2.3 | -2.2 | CC1=NN(c2ccccc2)C(=O)C1 [edaravone, reference compound] |  |  | 0.9 |  |  |  |  |  |  |  |  | Average % variation with respect to the vehicle ([3]; healthy mice, 50 mg/kg IP for three consecutive days, mean over all parameters, D = doxorubicin alone): -2.7%
8 | 1.4 | -10.5 | -1.8 | 2.0 | 4.1 | 2.5 | -8.6 | -2.8 | CC1(C)CC(=O)C(C2CCCCN2O)C(=O)C1 (centres unmarked) [(3), 2-(1-hydroxypiperidin-2-yl)-5,5-dimethylcyclohexane-1,3-dione] | 3.47 | 6.92 | 1.0 | did not significantly alter the parameters |  |  |  |  |  |  |  | Average % variation with respect to the vehicle ([3]; healthy mice, 50 mg/kg IP for three consecutive days, mean over all parameters, D = doxorubicin alone, listed as V+(3), 50 mg/kg): -0.2%
